Experimental data published in ChEMBL document CHEMBL1914426, “Phospshoinositide 3-kinase (PI3K)/mammalian target of rapamycin (mTOR) dual inhibitors: discovery and structure-activity relationships of a series of quinoline and quinoxaline derivatives” (J Med Chem, 2011).

Key:
[1] = molecular target: Phosphatidylinositol 4,5-bisphosphate 3-kinase catalytic subunit gamma isoform (Homo sapiens, UniProt P48736); set-up: species or system Sf9
[2] = Oral bioavailability in Sprague-Dawley rat at 1 mg/kg; type: ADME, organism-based; settings: in vivo
[3] = AUC in Sprague-Dawley rat at 1 mg/kg, po; type: ADME, organism-based; set-up: dose 1 mg/kg, route oral; settings: plasma
[4] = molecular target: Phosphatidylinositol 4,5-bisphosphate 3-kinase catalytic subunit beta isoform (Homo sapiens, UniProt P42338)
[5] = molecular target: T1, Phosphatidylinositol 4,5-bisphosphate 3-kinase catalytic subunit delta isoform (Homo sapiens, UniProt O00329)
T1 sequence (O00329 whole entry): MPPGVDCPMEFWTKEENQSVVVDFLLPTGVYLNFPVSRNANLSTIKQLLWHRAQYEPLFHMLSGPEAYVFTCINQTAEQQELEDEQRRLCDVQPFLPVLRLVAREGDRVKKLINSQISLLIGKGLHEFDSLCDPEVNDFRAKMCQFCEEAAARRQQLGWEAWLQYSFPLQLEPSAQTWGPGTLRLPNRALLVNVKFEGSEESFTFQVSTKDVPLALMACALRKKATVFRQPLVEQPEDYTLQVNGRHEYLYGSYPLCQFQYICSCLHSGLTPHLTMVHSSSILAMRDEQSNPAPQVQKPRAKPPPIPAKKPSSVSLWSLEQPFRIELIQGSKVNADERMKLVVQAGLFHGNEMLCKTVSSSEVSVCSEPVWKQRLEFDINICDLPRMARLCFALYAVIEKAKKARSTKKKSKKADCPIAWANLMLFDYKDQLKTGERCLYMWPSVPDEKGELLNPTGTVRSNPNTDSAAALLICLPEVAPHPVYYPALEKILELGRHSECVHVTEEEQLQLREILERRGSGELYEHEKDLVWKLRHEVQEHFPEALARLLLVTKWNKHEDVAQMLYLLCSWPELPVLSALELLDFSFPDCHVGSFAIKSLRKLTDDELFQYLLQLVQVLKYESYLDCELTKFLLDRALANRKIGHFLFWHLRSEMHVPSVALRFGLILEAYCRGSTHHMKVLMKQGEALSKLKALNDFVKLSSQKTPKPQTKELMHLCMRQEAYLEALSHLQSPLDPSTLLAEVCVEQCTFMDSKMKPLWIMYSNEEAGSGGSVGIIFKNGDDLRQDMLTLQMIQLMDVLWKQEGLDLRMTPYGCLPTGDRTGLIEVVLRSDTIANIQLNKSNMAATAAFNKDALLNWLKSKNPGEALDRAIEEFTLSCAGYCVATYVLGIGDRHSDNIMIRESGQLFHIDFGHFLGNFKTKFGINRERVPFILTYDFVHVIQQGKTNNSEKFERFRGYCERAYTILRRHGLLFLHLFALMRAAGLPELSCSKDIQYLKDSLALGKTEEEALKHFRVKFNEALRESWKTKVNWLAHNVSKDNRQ

[6] = molecular target: Phosphatidylinositol 3-kinase catalytic subunit type 3 (Homo sapiens, UniProt Q8NEB9)
Description: Inhibition of human VPS34 assessed as ADP formation using ATP by fluorescence-based immunoassay

Rattus norvegicus [7] = organism: Rattus norvegicus; settings: in vivo, iv, 1 mg/kg
Description: Hepatic blood flow in Sprague-Dawley rat 1 mg/kg, iv

in vivo [8] = settings: Sprague-Dawley, rat, iv, 1 mg/kg
Description: (§1) Clearance in Sprague-Dawley rat at 1 mg/kg, iv

in vivo [9] = settings: Sprague-Dawley, rat, iv, 1 mg/kg; remark: listed apart in the source
Description: (§2) Volume of distribution at steady-state in Sprague-Dawley rat at 1 mg/kg, iv

in vivo [10] = settings: Sprague-Dawley, rat, iv, 1 mg/kg; remark: listed apart in the source
Description: (§3) Mean residence time in Sprague-Dawley rat at 1 mg/kg, iv

in vivo [11] = settings: nude CD1, mouse, plasma, po, 0.3 mg/kg
Description: Plasma concentration in nude CD1 mouse at 0.3 mg/kg, po measured after 3 hrs

in vivo [12] = settings: nude CD1, mouse, plasma, po, 1 mg/kg
Description: Plasma concentration in nude CD1 mouse at 1 mg/kg, po measured after 3 hrs

in vivo [13] = settings: nude CD1, mouse, plasma, po, 3 mg/kg
Description: Plasma concentration in nude CD1 mouse at 3 mg/kg, po measured after 3 hrs

in vitro [14] = settings: human, liver microsomes
Description: Clearance in human liver microsomes assessed as compound remaining at 1 uM after 30 mins

in vitro [15] = settings: rat, liver microsomes
Description: Clearance in rat liver microsomes assessed as compound remaining at 1 uM after 30 mins

Mus musculus [16] = organism: Mus musculus; test: animal or person; settings: CD1, po, 3 h, read-out: INH
Mus musculus [17] = organism: Mus musculus; test: animal or person; settings: CD1, po, 3 h, read-out: INH; remark: listed apart in the source
Mus musculus [18] = organism: Mus musculus; test: animal or person; settings: CD1, po, 3 h, read-out: INH; remark: listed apart in the source
[19] = molecular target: Serine/threonine-protein kinase mTOR (Homo sapiens, UniProt P42345)
Description: Inhibition of mTOR using GFP-tagged 4E-BP1 after 1 hr by spectrophotometric analysis

[20] = molecular target: T2, Phosphatidylinositol 4,5-bisphosphate 3-kinase catalytic subunit alpha isoform (Homo sapiens, UniProt P42336)
[21] = molecular target: T2, Phosphatidylinositol 4,5-bisphosphate 3-kinase catalytic subunit alpha isoform; remark: listed apart in the source
Rattus norvegicus [22] = organism: Rattus norvegicus; settings: in vivo, iv, 1 mg/kg; remark: listed apart in the source
Description: as §1

Rattus norvegicus [23] = organism: Rattus norvegicus; settings: in vivo, iv, 1 mg/kg; remark: listed apart in the source
Description: as §2

Rattus norvegicus [24] = organism: Rattus norvegicus; settings: in vivo, iv, 1 mg/kg; remark: listed apart in the source
Description: as §3

Mus musculus [25] = test: Inhibition of PI3K-induced Akt phosphorylation at Ser 473 in HGF-stimulated nude CD1 mouse at 0.3 mg/kg, po measured after 4 hrs by quantitative electrochemiluminescence immunoassay; type: functional; settings: CD1, 4 h
Mus musculus [26] = test: Inhibition of PI3K-induced Akt phosphorylation at Ser 473 in HGF-stimulated nude CD1 mouse at 1 mg/kg, po measured after 4 hrs by quantitative electrochemiluminescence immunoassay; type: functional; settings: CD1, 4 h
Mus musculus [27] = test: Inhibition of PI3K-induced Akt phosphorylation at Ser 473 in HGF-stimulated nude CD1 mouse at 3 mg/kg, po measured after 4 hrs by quantitative electrochemiluminescence immunoassay; type: functional; settings: CD1, 4 h
[28] = Plasma concentration in nude CD1 mouse at 0.3 mg/kg, po measured after 4 hrs; type: ADME, organism-based; set-up: dose 0.3 mg/kg, route oral
[29] = Plasma concentration in nude CD1 mouse at 1 mg/kg, po measured after 4 hrs; type: ADME, organism-based; set-up: dose 1 mg/kg, route oral
[30] = Plasma concentration in nude CD1 mouse at 3 mg/kg, po measured after 4 hrs; type: ADME, organism-based; set-up: dose 3 mg/kg, route oral
[31] = molecular target: DNA-dependent protein kinase catalytic subunit (Homo sapiens, UniProt P78527)
Description: Inhibition of DNA-PK using fluorescein-p53 peptide as substrate after 1 hr by TR-FRET enzyme assay

T2 sequence (P42336 whole entry, canonical isoform): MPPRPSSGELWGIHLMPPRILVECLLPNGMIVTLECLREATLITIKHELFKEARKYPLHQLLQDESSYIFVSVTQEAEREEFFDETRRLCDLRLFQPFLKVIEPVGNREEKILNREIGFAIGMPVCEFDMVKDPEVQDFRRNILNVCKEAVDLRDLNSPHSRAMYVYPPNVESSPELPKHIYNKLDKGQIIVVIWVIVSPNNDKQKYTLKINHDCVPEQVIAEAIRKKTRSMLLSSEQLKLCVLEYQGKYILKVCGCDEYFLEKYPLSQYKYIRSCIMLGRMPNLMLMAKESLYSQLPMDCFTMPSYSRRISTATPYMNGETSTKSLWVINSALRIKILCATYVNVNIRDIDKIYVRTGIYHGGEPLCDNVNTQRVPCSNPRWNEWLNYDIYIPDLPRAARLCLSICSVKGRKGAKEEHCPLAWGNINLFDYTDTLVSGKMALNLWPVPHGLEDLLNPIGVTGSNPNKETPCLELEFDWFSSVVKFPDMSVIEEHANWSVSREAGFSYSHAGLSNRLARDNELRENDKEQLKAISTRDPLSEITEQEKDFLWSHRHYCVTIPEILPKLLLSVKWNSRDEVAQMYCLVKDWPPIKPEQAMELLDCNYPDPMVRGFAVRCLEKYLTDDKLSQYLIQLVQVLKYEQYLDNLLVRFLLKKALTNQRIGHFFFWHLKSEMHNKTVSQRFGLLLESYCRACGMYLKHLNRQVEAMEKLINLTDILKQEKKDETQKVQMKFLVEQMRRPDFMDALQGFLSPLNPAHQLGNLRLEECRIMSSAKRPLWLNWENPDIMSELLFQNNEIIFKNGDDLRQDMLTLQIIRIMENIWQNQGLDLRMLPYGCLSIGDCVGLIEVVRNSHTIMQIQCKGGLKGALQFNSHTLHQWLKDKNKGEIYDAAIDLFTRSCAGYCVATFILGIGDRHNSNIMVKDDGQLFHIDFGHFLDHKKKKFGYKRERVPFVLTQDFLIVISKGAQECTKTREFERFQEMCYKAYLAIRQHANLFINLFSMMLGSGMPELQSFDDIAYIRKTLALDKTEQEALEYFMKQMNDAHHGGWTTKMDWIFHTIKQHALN
Sequence of Phosphatidylinositol 3-kinase catalytic subunit type 3 (Q8NEB9 whole entry): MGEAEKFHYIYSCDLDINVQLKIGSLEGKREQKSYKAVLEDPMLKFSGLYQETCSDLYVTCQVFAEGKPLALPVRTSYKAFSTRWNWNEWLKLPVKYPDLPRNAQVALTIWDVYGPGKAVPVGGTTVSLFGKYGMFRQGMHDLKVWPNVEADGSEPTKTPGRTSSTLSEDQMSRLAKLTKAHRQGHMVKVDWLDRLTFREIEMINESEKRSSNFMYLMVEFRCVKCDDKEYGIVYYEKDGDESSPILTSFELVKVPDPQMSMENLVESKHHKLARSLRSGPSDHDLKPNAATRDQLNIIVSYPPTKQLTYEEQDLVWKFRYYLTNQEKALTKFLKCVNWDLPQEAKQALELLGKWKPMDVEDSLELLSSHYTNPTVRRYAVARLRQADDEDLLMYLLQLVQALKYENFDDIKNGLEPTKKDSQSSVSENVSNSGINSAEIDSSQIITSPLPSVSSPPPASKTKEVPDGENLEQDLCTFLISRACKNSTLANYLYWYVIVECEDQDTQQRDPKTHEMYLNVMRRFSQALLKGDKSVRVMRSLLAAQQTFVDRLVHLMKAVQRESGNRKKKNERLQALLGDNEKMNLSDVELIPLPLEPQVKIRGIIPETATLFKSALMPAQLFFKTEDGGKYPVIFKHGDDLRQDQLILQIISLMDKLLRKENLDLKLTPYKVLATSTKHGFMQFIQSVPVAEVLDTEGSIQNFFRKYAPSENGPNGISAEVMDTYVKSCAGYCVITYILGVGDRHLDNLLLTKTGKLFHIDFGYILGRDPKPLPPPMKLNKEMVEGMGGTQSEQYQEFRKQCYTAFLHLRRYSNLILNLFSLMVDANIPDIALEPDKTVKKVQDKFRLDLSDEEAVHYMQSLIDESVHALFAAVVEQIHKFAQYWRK
Sequence of Phosphatidylinositol 4,5-bisphosphate 3-kinase catalytic subunit beta isoform (P42338 whole entry, canonical isoform): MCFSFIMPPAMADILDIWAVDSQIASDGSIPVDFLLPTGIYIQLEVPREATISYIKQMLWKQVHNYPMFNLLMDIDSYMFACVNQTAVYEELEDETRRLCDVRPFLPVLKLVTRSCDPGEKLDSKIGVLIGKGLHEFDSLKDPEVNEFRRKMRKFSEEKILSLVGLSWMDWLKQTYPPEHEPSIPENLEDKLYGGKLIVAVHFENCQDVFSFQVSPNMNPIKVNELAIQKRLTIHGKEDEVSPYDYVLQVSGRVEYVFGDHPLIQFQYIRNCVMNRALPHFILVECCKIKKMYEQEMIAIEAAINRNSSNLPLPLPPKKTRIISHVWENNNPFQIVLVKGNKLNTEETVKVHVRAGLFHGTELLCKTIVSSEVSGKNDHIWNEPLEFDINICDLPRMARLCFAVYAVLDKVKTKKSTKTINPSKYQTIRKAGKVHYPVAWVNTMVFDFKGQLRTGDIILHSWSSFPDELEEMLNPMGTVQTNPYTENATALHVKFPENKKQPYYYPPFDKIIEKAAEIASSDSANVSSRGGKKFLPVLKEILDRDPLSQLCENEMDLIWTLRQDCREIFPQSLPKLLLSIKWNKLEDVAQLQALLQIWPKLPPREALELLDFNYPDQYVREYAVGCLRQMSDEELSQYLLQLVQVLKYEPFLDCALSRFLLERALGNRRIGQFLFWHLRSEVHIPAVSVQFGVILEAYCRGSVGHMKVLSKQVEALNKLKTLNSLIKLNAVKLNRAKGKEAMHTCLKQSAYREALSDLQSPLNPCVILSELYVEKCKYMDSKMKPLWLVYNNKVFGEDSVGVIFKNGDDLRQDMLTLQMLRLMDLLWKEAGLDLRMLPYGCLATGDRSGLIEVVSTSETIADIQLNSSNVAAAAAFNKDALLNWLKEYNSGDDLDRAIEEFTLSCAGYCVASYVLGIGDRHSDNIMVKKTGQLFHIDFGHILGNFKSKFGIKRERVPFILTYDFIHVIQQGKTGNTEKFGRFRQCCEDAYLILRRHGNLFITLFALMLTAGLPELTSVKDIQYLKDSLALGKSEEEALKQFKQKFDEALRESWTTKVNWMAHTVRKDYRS
Sequence of Phosphatidylinositol 4,5-bisphosphate 3-kinase catalytic subunit gamma isoform (P48736 whole entry, canonical isoform): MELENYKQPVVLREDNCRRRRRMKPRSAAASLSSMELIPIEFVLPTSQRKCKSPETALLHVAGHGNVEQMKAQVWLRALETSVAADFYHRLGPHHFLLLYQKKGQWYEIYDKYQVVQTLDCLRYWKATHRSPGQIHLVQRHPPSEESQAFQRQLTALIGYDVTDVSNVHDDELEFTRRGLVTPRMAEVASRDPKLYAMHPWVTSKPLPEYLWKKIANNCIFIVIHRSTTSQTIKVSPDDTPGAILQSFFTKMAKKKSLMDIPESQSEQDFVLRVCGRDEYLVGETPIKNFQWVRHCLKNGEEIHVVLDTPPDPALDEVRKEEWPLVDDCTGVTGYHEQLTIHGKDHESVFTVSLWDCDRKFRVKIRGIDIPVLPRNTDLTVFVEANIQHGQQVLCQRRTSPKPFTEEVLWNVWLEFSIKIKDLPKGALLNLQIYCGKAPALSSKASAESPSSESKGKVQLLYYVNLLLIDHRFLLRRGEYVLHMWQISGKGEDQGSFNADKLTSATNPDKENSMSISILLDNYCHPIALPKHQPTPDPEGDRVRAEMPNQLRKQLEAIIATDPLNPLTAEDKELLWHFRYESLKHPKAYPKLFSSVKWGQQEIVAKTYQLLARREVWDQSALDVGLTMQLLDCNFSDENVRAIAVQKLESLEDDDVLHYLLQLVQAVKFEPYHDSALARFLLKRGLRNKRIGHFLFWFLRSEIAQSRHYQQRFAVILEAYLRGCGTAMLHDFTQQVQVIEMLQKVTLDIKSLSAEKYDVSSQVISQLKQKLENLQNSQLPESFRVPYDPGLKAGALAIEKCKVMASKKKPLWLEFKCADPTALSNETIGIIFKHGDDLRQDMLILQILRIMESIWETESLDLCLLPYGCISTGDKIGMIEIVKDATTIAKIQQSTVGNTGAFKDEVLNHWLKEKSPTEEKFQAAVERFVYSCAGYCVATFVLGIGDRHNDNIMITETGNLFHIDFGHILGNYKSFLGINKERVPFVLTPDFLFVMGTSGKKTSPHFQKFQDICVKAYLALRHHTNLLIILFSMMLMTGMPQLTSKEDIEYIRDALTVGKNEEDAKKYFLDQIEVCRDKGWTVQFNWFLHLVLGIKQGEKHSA

Compound	IC50 [1] [nM]	bioavailability [2] [%]	AUC [3] [ng·h/mL]	IC50 [5] [nM]	QH (Rattus norvegicus [7]) [%]	clearance (in vivo [8]) [mL/min/kg]	Vd (in vivo [9]) [L/kg]	MRT (in vivo [10]) [h]	microsomal CLint at 0.5 h, 1 µM (in vitro [14]) [µL/min/mg]	microsomal CLint at 0.5 h, 1 µM (in vitro [15]) [µL/min/mg]	Ki [20] [nM]	IC50 [21] [nM]	other results
O=S(=O)(Nc1cc(-c2ccc3nccc(-c4cccnc4)c3c2)cnc1Cl)c1ccc(F)cc1	7.7	73	5630	5.9	0.6	2.17	0.81	6.3	< 14	33	–	–	IC50 [4]: 10 nM; IC50 [6]: 2.9 nM; concentration at 3 h (in vivo [11]): 210 ng/mL; concentration at 3 h (in vivo [12]): 899 ng/mL; concentration at 3 h (in vivo [13]): 2330 ng/mL; inhibition in vivo at 0.3 mg/kg (Mus musculus [16]): 70%; inhibition in vivo at 1 mg/kg (Mus musculus [17]): 97%; inhibition in vivo at 3 mg/kg (Mus musculus [18]): 99%
O=S(=O)(Nc1cc(-c2ccc3nccc(-c4ccncc4)c3c2)cnc1Cl)c1ccc(F)cc1	13	70	14700	6	0.6	0.667	0.52	15	< 14	20	–	–	IC50 [4]: 15 nM; IC50 [19]: 0.41 nM; IC50 [6]: 5.3 nM; concentration at 3 h (in vivo [11]): 326 ng/mL; concentration at 3 h (in vivo [12]): 950 ng/mL; concentration at 3 h (in vivo [13]): 2470 ng/mL; inhibition in vivo at 0.3 mg/kg (Mus musculus [16]): 89%; inhibition in vivo at 1 mg/kg (Mus musculus [17]): 98%; inhibition in vivo at 3 mg/kg (Mus musculus [18]): > 99%
CN(C)c1ccc(-c2ccnc3ccc(-c4cnc(Cl)c(NS(=O)(=O)c5ccc(F)cc5)c4)cc23)cc1	–	–	–	–	–	–	–	–	–	–	0.7	61	–
O=S(=O)(Nc1cc(-c2ccc3ncc(NCC4CCCNC4)nc3c2)cnc1Cl)c1ccc(F)cc1 (stereo unspecified)	–	–	–	–	–	–	–	–	–	–	3.3	2710	–
O=S(=O)(Nc1cc(-c2ccc3ncc(NCCN4CCCCC4)nc3c2)cnc1Cl)c1ccc(F)cc1	–	16	271	–	0.6	–	–	–	25	< 14	–	–	CL (Rattus norvegicus [22]): 9.83 mL/min/kg; Vdss (Rattus norvegicus [23]): 0.19 L/kg; MRT (Rattus norvegicus [24]): 2.1 h
O=S(=O)(Nc1cc(-c2ccc3ncc(NCCN4CCOCC4)nc3c2)cnc1Cl)c1ccc(F)cc1	16	–	–	6	–	–	–	–	–	–	–	–	IC50 [4]: 9.8 nM
O=S(=O)(Nc1cc(-c2ccc3ncc(N4CCCCC4)nc3c2)cnc1Cl)c1ccc(F)cc1	–	–	–	–	–	–	–	–	–	–	0.9	128	–
O=S(=O)(Nc1cc(-c2ccc3ncc(N4CCC(F)(F)CC4)nc3c2)cnc1Cl)c1ccc(F)cc1	–	–	–	–	–	–	–	–	–	–	0.6	189	–
O=S(=O)(Nc1cc(-c2ccc3ncc(N4C[C@H]5CC[C@H](CC5)C4)nc3c2)cnc1Cl)c1ccc(F)cc1	–	–	–	–	–	–	–	–	–	–	1	247	–
CC(C)N1CCN(c2cnc3ccc(-c4cnc(Cl)c(NS(=O)(=O)c5ccc(F)cc5)c4)cc3n2)CC1	13	72	10800	5.6	0.6	1.33	0.4	5.4	31	32	0.8	17	inhibition in vivo at 0.3 mg/kg (Mus musculus [25]): 50%; inhibition in vivo at 1 mg/kg (Mus musculus [26]): 86%; inhibition in vivo at 3 mg/kg (Mus musculus [27]): 95%; concentration at 4 h [28]: 155 ng/mL; concentration at 4 h [29]: 417 ng/mL; concentration at 4 h [30]: 1790 ng/mL; IC50 [19]: 37 nM
O=S(=O)(Nc1cc(-c2ccc3ncc(N4CCOCC4)nc3c2)cnc1Cl)c1ccc(F)cc1	2.4	88	29600	4.4	0.6	0.333	0.19	9	< 14	16	–	–	inhibition in vivo at 0.3 mg/kg (Mus musculus [25]): 55%; inhibition in vivo at 1 mg/kg (Mus musculus [26]): 86%; inhibition in vivo at 3 mg/kg (Mus musculus [27]): 97%; concentration at 4 h [28]: 448 ng/mL; concentration at 4 h [29]: 1730 ng/mL; concentration at 4 h [30]: 4470 ng/mL; IC50 [19]: 5 nM; IC50 [6]: 5 nM; IC50 [31]: 3.4 nM
